Measured values published in patent publication US20230120205A1, “NERVE CELL DEGENERATION INHIBITOR” (KYOTO UNIVERSITY, priority 2020, published 2023).

Key:
[1] = tested on: ALS7 (C9orf72) cell-derived motor neurons; assay: Cytotoxicity: intracellular ATP level (CellTiter-Glo); format: cell-based, human
Procedure: In order to examine the cytotoxicity of the test compound, the intracellular ATP level was measured.
ALS7 (C9orf72) cells were seeded on an assay plate in the same procedure as in Experimental Example 1. Four days after seeding, the assay medium containing no Y-27632 was added to the plate, and the cells were cultured until seven days after seeding, and the assay medium (Retinoic Acid, Doxycycline, SAG, Y-27632-free) containing the test compound at a predetermined concentration was added to the plate by medium exchange. 24 hr or 48 hr after addition of the test compound, the medium was removed, and CellTiter-Glo Luminescent Cell Viability Assay (Promega, G7570) was performed.
The method for detecting the cytotoxicity of the test compound is as follows.
(§1) As a negative control, the cells cultured in the assay medium supplemented with DMSO instead of the test compound were used.
The degree of the effect on the intracellular ATP level in the test compound-treated cells was defined as the ATP level of the test compound compared with the negative control, which was calculated by the following formula.
ATP level of the test compound compared to the negative control=X/C×100
X: ATP level in the test compound group, C: ATP level in the DMSO group
When the intracellular ATP level was less than 0.5 times or more than 1.5 times the intracellular ATP level in the negative control, it was judged to be cytotoxic.

RAN translation = RAN translation inhibitory activity (poly-GP level by electrochemiluminescence); format: cell-based, human; settings: two days after addition, poly-GP level vs DMSO; for inhibition at 1 µM / inhibition at 3 µM / inhibition at 10 µM: Homo sapiens, 48 h
Procedure: Next, the effect of the compound used in the present invention on RAN translation was examined. Among the DPRs generated by RAN translation, the poly-GP level was measured by an electrochemiluminescence system (Meso Scale Diagnostics).
ALS7 (C9orf72) cells were seeded on an assay plate in the same procedure as in Experimental Example 1. Four days after seeding, the assay medium containing no Y-27632 was added to the plate, and the cells were cultured until seven days after seeding, and the assay medium (Retinoic Acid, Doxycycline, SAG, Y-27632-free) containing the test compound at a predetermined concentration was added to the plate by medium exchange. Two days after addition of the test compound, the medium was removed, and the cells were lysed in an urea buffer consisting of 8M Urea (Wako, 219-00175), 4% CHAPS (Dojindo, 349-04722) and 30 mM Tris-HCl (pH 8.0, Nippon Gene, 312-90061). The cell lysate was added to a multi-array 384 well plate (Meso Scale Diagnostics, L21XB-4), and the plate was agitated at 700 rpm with a plate shaker (Azwan, DM-301) at room temperature, and then allowed to stand overnight at 4° C. The cell lysate was removed, a blocking buffer consisting of 5% Blocker A (Meso Scale Diagnostics, R93AA-1) and 1×TBS-T {TBS (Bio-Rad, 170-6435) containing 0.05% Tween-20 (Bio-Rad, 170-6531)} was added to the plate, and the plate was agitated at 700 rpm with a plate shaker for 1 hr at room temperature, and then washed three times with a wash buffer consisting of 0.05% Tween-20 and PBS (Wako, 162-18547). C9RANT antibody (Novus Biologicals, NBP2-25018) diluted 10,000-fold with 1×TBS-T containing 1% Blocker A was added to the plate, and the plate was agitated at 700 rpm with a plate shaker for 2 hr at 4° C., and then allowed to stand overnight at 4° C. After washing three times with the wash buffer, SULFO-TAG Goat Anti-Rabbit Antibody (Meso Scale Diagnostics, R32AB-1) diluted 500-fold with 1×TBS-T containing 1% Blocker A was added to the plate, and the plate was agitated at 700 rpm with a plate shaker for 2 hr at room temperature. After washing three times with the wash buffer, 2×MSD Read Buffer T with Surfactant (Meso Scale Diagnostics, R92TC-1) was added to the plate, and the signal derived from the C9RANT antibody was measured by MESO SECTOR S600 (Meso Scale Diagnostics).
The method for detecting the activity of the test compound is as follows.
as §1
RAN translation inhibitory activity of the test compound=100−X/C×100
X: poly-GP level in the test compound group, C: poly-GP level in the DMSO group

Row | SMILES | ATP level % compared to negative control ([1]; After 24 hr, 1 μM) [%] | ATP level % compared to negative control ([1]; After 24 hr, 3 μM) [%] | ATP level % compared to negative control ([1]; After 24 hr, 10 μM) [%] | ATP level % compared to negative control ([1]; After 48 hr, 1 μM) [%] | ATP level % compared to negative control ([1]; After 48 hr, 3 μM) [%] | ATP level % compared to negative control ([1]; After 48 hr, 10 μM) [%] | inhibition at 1 µM (RAN translation; 1 μM test compound) [%] | inhibition at 3 µM (RAN translation; 3 μM test compound) [%] | inhibition at 10 µM (RAN translation; 10 μM test compound) [%] | RAN translation inhibitory activity % (RAN translation; 1 μM test compound) [%] | RAN translation inhibitory activity % (RAN translation; 10 μM test compound) [%] | RAN translation inhibitory activity % (RAN translation; 3 μM test compound) [%]
1 | CS(=N)(=O)Cc1cccc(Nc2ncnc(-c3ccccc3OCc3ccc(Cl)c(Cl)c3)n2)c1 (centres unmarked) [Compound No. 5, 4-{2-[(3,4-dichlorophenyl)methoxy]phenyl}-N-{3-[(S-methanesulfonimidoyl)methyl]phenyl}-1,3,5-triazin-2-amine] | 98 | 118 | 131 | 83 | 94 | 108 | 19 | 16 | 21 |  |  | 
2 | COc1ccccc1-c1ncnc(Nc2cccc(CS(N)(=O)=O)c2)n1 [Compound No. 2, 1-(3-{[4-(2-methoxyphenyl)-1,3,5-triazin-2-yl]amino}phenyl)methanesulfonamide] | 98 | 89 | 101 | 99 | 74 | 53 | > 1 | 6 | 15 |  |  | 
3 | NS(=O)(=O)Cc1cccc(Nc2ncnc(-c3ccccc3OCc3ccccc3)n2)c1.O=C(O)C(F)(F)F [Compound No. 4a, 1-[3-({4-[2-(benzyloxy)phenyl]-1,3,5-triazin-2-yl}amino)phenyl]methanesulfonamide trifluoroacetate] | 113 | 128 | 140 | 80 | 101 | 115 |  | 11 |  | 5 | 3 | 
4 | CCOC(=O)N=S(C)(=O)Cc1cccc(Nc2ncnc(-c3cccc4c3OCCO4)n2)c1 (centres unmarked) [Compound No. 6, ethyl {[(3-{[4-(2,3-dihydro-1,4-benzodioxin-5-yl)-1,3,5-triazin-2-yl]amino}phenyl)methyl](methyl)oxo-λ^6-sulfanylidene}carbamate] | 89 | 107 | 130 | 77 | 71 | 124 | 16 |  | 21 |  |  | 
5 | NS(=O)(=O)Cc1cccc(Nc2ncnc(-c3ccccc3OCc3ccccc3)n2)c1 [Compound No. 4b, 1-[3-({4-[2-(benzyloxy)phenyl]-1,3,5-triazin-2-yl}amino)phenyl]methanesulfonamide] | 105 | 121 | 134 | 73 | 97 | 102 |  |  |  | 11 | 17 | 17
6 | CCOC(=O)N=S(C)(=O)Cc1cccc(Nc2ncnc(-c3cccc4c3OCC4)n2)c1 (centres unmarked) [Compound No. 7, ethyl {[(3-{[4-(2,3-dihydro-1-benzofuran-7-yl)-1,3,5-triazin-2-yl]amino}phenyl)methyl](methyl)oxo-λ^6-sulfanylidene}carbamate] | 89 | 105 | 126 | 86 | 87 | 112 | 4 | 19 | 17 |  |  | 
7 | COc1cc(F)ccc1-c1ncnc(Nc2cccc(CS(C)(=N)=O)c2)n1 (centres unmarked) [Compound No. 1, 4-(4-fluoro-2-methoxyphenyl)-N-{3-[(S-methanesulfonimidoyl)methyl]phenyl}-1,3,5-triazin-2-amine] | 92 | 107 | 134 | 91 | 89 | 122 | 1 | 19 | 18 |  |  | 
8 | COc1cc(Cl)ccc1-c1ncnc(Nc2cccc(CS(N)(=O)=O)c2)n1 [Compound No. 3, 1-(3-{[4-(4-chloro-2-methoxyphenyl)-1,3,5-triazin-2-yl]amino}phenyl)methanesulfonamide] | 104 | 97 | 106 | 105 | 87 | 69 | > 1 | 1 | 4 |  |  | 
